In the NIST ThermoML archive (doi:10.1021/je050054u):
± gives the expanded uncertainty stated by the source.

Settings: Liquid, Closed cell (Static) method

CCF [fluoroethane]
vapor or sublimation pressure (235.69 K): 101.5 ± 3 kPa
vapor or sublimation pressure (235.74 K): 101.7 ± 3 kPa
vapor or sublimation pressure (235.79 K): 101.9 ± 3 kPa
vapor or sublimation pressure (235.84 K): 102.2 ± 3 kPa
vapor or sublimation pressure (235.89 K): 102.4 ± 3 kPa
vapor or sublimation pressure (235.94 K): 102.6 ± 3 kPa
vapor or sublimation pressure (236 K): 102.9 ± 3 kPa
vapor or sublimation pressure (236.09 K): 103.4 ± 3 kPa
vapor or sublimation pressure (237.11 K): 108.3 ± 3 kPa
vapor or sublimation pressure (238.07 K): 113.3 ± 3 kPa
vapor or sublimation pressure (240.11 K): 124.1 ± 3 kPa
vapor or sublimation pressure (242.12 K): 135.4 ± 3 kPa
vapor or sublimation pressure (244.1 K): 147.6 ± 3 kPa
vapor or sublimation pressure (245.09 K): 153.8 ± 3 kPa
vapor or sublimation pressure (247.09 K): 167.1 ± 3 kPa
vapor or sublimation pressure (249.1 K): 181.5 ± 3 kPa
vapor or sublimation pressure (251.07 K): 196.3 ± 3 kPa
vapor or sublimation pressure (253.11 K): 212.7 ± 3 kPa
vapor or sublimation pressure (255.11 K): 229.7 ± 3 kPa
vapor or sublimation pressure (257.13 K): 247.8 ± 3 kPa
vapor or sublimation pressure (259.11 K): 267.6 ± 3 kPa
vapor or sublimation pressure (261.11 K): 288 ± 3 kPa
vapor or sublimation pressure (263.12 K): 309.5 ± 3 kPa
vapor or sublimation pressure (264.11 K): 320.7 ± 3 kPa
vapor or sublimation pressure (265.1 K): 332.4 ± 3 kPa
vapor or sublimation pressure (266.12 K): 344.5 ± 3 kPa
vapor or sublimation pressure (267.13 K): 356.6 ± 3 kPa
vapor or sublimation pressure (268.13 K): 369.1 ± 3.1 kPa
vapor or sublimation pressure (269.13 K): 382 ± 3.1 kPa
vapor or sublimation pressure (270.13 K): 395.3 ± 3.1 kPa
vapor or sublimation pressure (271.13 K): 408.8 ± 3.1 kPa
vapor or sublimation pressure (272.15 K): 422.9 ± 3.1 kPa
vapor or sublimation pressure (273.12 K): 436.7 ± 3.1 kPa
vapor or sublimation pressure (274.11 K): 451.2 ± 3.1 kPa
vapor or sublimation pressure (275.11 K): 466 ± 3.1 kPa
vapor or sublimation pressure (276.14 K): 481.8 ± 3.1 kPa
vapor or sublimation pressure (277.14 K): 497.5 ± 3.1 kPa
vapor or sublimation pressure (278.17 K): 513.9 ± 3.1 kPa
vapor or sublimation pressure (279.14 K): 529.9 ± 3.1 kPa
vapor or sublimation pressure (280.13 K): 546.6 ± 3.1 kPa
vapor or sublimation pressure (281.13 K): 563.9 ± 3.1 kPa
vapor or sublimation pressure (282.16 K): 581.9 ± 3.1 kPa
vapor or sublimation pressure (283.14 K): 599.6 ± 3.1 kPa
vapor or sublimation pressure (285.18 K): 636.5 ± 3.1 kPa
vapor or sublimation pressure (287.13 K): 675.1 ± 3.2 kPa
vapor or sublimation pressure (288.13 K): 695.2 ± 3.2 kPa
vapor or sublimation pressure (290.14 K): 737.5 ± 3.2 kPa
vapor or sublimation pressure (292.01 K): 777.9 ± 3.2 kPa
vapor or sublimation pressure (294.03 K): 824.2 ± 3.2 kPa
vapor or sublimation pressure (296.04 K): 871.8 ± 3.3 kPa
vapor or sublimation pressure (298.07 K): 921.9 ± 3.3 kPa
vapor or sublimation pressure (300.05 K): 972.9 ± 3.3 kPa
vapor or sublimation pressure (302 K): 1024.9 ± 3.4 kPa
vapor or sublimation pressure (304.03 K): 1081.4 ± 3.4 kPa
vapor or sublimation pressure (306.12 K): 1141.9 ± 3.4 kPa
vapor or sublimation pressure (308.08 K): 1200.9 ± 3.5 kPa
vapor or sublimation pressure (310.32 K): 1270.6 ± 3.5 kPa
vapor or sublimation pressure (312.19 K): 1330.5 ± 3.6 kPa
vapor or sublimation pressure (314.18 K): 1398.1 ± 3.6 kPa
vapor or sublimation pressure (316.32 K): 1472.8 ± 3.7 kPa
vapor or sublimation pressure (316.33 K): 1473.6 ± 3.7 kPa
vapor or sublimation pressure (318.17 K): 1539.8 ± 3.8 kPa
vapor or sublimation pressure (320.14 K): 1613.2 ± 3.8 kPa
vapor or sublimation pressure (322.13 K): 1690.2 ± 3.9 kPa
vapor or sublimation pressure (324.12 K): 1770.2 ± 4 kPa
vapor or sublimation pressure (326.11 K): 1852.2 ± 4 kPa
vapor or sublimation pressure (328.13 K): 1938.9 ± 4.1 kPa
vapor or sublimation pressure (330.15 K): 2027 ± 4.2 kPa
vapor or sublimation pressure (332.15 K): 2119.3 ± 4.3 kPa
vapor or sublimation pressure (333.15 K): 2167.4 ± 4.4 kPa
vapor or sublimation pressure (334.16 K): 2215.1 ± 4.4 kPa
vapor or sublimation pressure (335.15 K): 2263.9 ± 4.5 kPa
vapor or sublimation pressure (336.15 K): 2313.2 ± 4.5 kPa
vapor or sublimation pressure (337.15 K): 2363.2 ± 4.6 kPa
vapor or sublimation pressure (338.16 K): 2414.5 ± 4.6 kPa
vapor or sublimation pressure (339.15 K): 2465.8 ± 4.7 kPa
vapor or sublimation pressure (340.16 K): 2518.5 ± 4.8 kPa
vapor or sublimation pressure (341.15 K): 2572 ± 4.8 kPa
vapor or sublimation pressure (342.15 K): 2626.3 ± 4.9 kPa
vapor or sublimation pressure (343.15 K): 2681.7 ± 4.9 kPa
vapor or sublimation pressure (344.14 K): 2737.4 ± 5 kPa
vapor or sublimation pressure (345.15 K): 2794.3 ± 5.1 kPa
vapor or sublimation pressure (346.15 K): 2852.2 ± 5.1 kPa
vapor or sublimation pressure (347.15 K): 2910.8 ± 5.2 kPa
vapor or sublimation pressure (348.15 K): 2970.7 ± 5.3 kPa
vapor or sublimation pressure (349.15 K): 3030.8 ± 5.3 kPa
vapor or sublimation pressure (350.15 K): 3092.2 ± 5.4 kPa
vapor or sublimation pressure (351.15 K): 3154.5 ± 5.5 kPa
vapor or sublimation pressure (352.15 K): 3218 ± 5.6 kPa
vapor or sublimation pressure (353.14 K): 3282 ± 5.7 kPa
vapor or sublimation pressure (354.15 K): 3347.6 ± 5.7 kPa
vapor or sublimation pressure (355.15 K): 3414.2 ± 5.8 kPa
vapor or sublimation pressure (356.15 K): 3481.2 ± 5.9 kPa
vapor or sublimation pressure (357.14 K): 3549.5 ± 6 kPa
vapor or sublimation pressure (358.14 K): 3619.1 ± 6.1 kPa
vapor or sublimation pressure (359.14 K): 3689.1 ± 6.2 kPa
vapor or sublimation pressure (360.15 K): 3761.3 ± 6.3 kPa
vapor or sublimation pressure (361.15 K): 3834 ± 6.3 kPa
vapor or sublimation pressure (362.16 K): 3908 ± 6.4 kPa
vapor or sublimation pressure (363.14 K): 3982.2 ± 6.5 kPa
vapor or sublimation pressure (364.14 K): 4058.4 ± 6.6 kPa
vapor or sublimation pressure (364.15 K): 4060.2 ± 6.6 kPa
vapor or sublimation pressure (365.14 K): 4138 ± 6.7 kPa
vapor or sublimation pressure (366.15 K): 4216.8 ± 6.8 kPa
vapor or sublimation pressure (367.15 K): 4295.8 ± 6.9 kPa
vapor or sublimation pressure (368.16 K): 4376.8 ± 7 kPa
vapor or sublimation pressure (369.14 K): 4460.1 ± 7.2 kPa
vapor or sublimation pressure (370.14 K): 4543.5 ± 7.3 kPa
vapor or sublimation pressure (371.14 K): 4627.6 ± 7.4 kPa
vapor or sublimation pressure (372.14 K): 4713.9 ± 7.5 kPa
